Data set [1] concerns tobacco budworm. As to the kind of experiment: foliar treated test against tobacco budworm on chick pea plants. It is filed as in vivo, Heliothis virescens. As to conditions: 96 hour exposure, dead plus moribund insects. As to the method: Certain compounds of formula I were tested against tobacco budworm on plant foliage. The foliar treated test against tobacco budworm were conducted in the following manner:
Nine-to-ten day-old chick pea plants (Cicer arietinum) were sprayed at 15 psi to runoff on both upper and lower leaf surfaces with solutions of test compound to provide application rates as high as 1000 ppm of test chemical. The solvent used to prepare the solutions of test compound was 10% acetone or methanol (v/v) and 0.1% of the surfactant octylphenoxypolyethoxyethanol in distilled water. Four replicates, each containing one chick pea plant, for each rate of application of test compound were sprayed. The treated plants were transferred to a hood where they were kept until the spray had dried.
The four chick pea plants for each replicate treated with test compound as described above were removed from their pots by cutting the stems just above the soil line. The excised leaves and stems from the four plants in each replicate were placed in individual 237 mL (8-ounce) paper cups, which contained a moistened filter paper. Five second-instar tobacco budworm (7 days old) were counted into each cup, taking care not to cause injury. An opaque plastic lid was placed on each cup, which was then held in a growth chamber for a 96 hour exposure period at 25° C., 50% relative humidity and photo-period of 12 hours light and 12 hours dark. At the end of the 96 hour exposure period the cups were opened, and the numbers of dead, moribund, and live insects were counted. Using the insect counts, the efficacy of the test compound was expressed in percent control. Percent control is derived from the total number of dead insects (TD) plus the total number of moribund insects (TM) as compared to the total number of insects (TI) in the test:
The condition of the test plants was also observed for phytotoxicity and for reduction of feeding damage as compared to an untreated control.

Data set [2] relates to tobacco budworm (Heliothis virescens [Fabricius]). The data set is described as follows: surface-treated diet test against tobacco budworm. In kind it is in vivo. As to conditions: 0.25 millimolar on the surface of the diet, second instar larvae, five-day exposure; for Percent Growth Inhibition: insect weight relative to untreated controls. From the text: The test compounds of formula I are identified by numbers that correspond to those in Table 1.

[3] abbreviates: 30 ppm foliar spray on chick pea.
Setting [4] is: 10 ppm foliar spray on chick pea.

The record followed here is US7585891B2, “Pesticidal (dihalopropenyl)phenylalkyl substituted benzodioxolane and benzodioxole derivatives” (FMC Corporation, priority 2003, dated 2009).

In the case of `CC1(C)Cc2cc(Cl)cc(OCCOc3c(Cl)cc(OCC=C(Cl)Cl)cc3Cl)c2O1` [Compound 1], in data set [1] (setting [3]), the “Percent Control” value turned out to be 70%.

As to `CC1(C)Oc2cccc(OCCCCOc3c(Cl)cc(OCC=C(Cl)Cl)cc3Cl)c2O1` [Compound 2, 5-(3,3-Dichloroprop-2-enyloxy)-2-[4-(2,2-dimethylbenzo[d]1,3-dioxolan-4-yloxy)butoxy]-1,3-dichlorobenzene], the “Percent Control” value is listed as 85% in data set [1] (setting [4]) and 100% in data set [1] (setting [3]). The “Percent Growth Inhibition” value in data set [2] came to 100%.

Regarding `CC1(C)Oc2ccc(OCCCCOc3c(Cl)cc(OCC=C(Cl)Cl)cc3Cl)cc2O1` [Compound 4, 5-{4-[4-(3,3-dichloroprop-2-enyloxy)-2,6-dichlorophenoxy]butoxy}-2,2-dimethylbenzo[d]1,3-dioxolane], the “Percent Control” value in data set [1] (setting [4]) was 83%; in data set [1] (setting [3]) it was 100%. Besides, the “Percent Growth Inhibition” value in data set [2] was 100%.

On to `FC1(F)Oc2ccc(OCCCCOc3c(Cl)cc(OCC=C(Cl)Cl)cc3Cl)cc2OC1(F)F` [Compound 9, 5-(3,3-Dichloroprop-2-enyloxy)-1,3-dichloro-2-[4-(2,2,3,3-tetrafluorobenzo[3,4-e]1,4-dioxan-6-yloxy)butoxy]benzene], for which the “Percent Control” value in data set [1] (setting [3]) is 100%. Besides, in data set [2], the “Percent Mortality” value is recorded as 100% and the “Percent Growth Inhibition” value is reported as 100%.
